According to US7629154B2, “Deinococcus N-acylamino acid racemase and use of preparing L-amino acid” (National Chunghsing University, priority 2005, dated 2009):
Where two headings read alike, the source gives them in different places.

How the values were obtained:
[1] = target: T1, N-acylamino acid racemase (NAAAR) (Deinococcus radiodurans, UniProt Q9RYA6, A252S/A94S/G148D/K158R/P315S); format: biochemical, Deinococcus radiodurans NCHU1003
[2] = target: T1, N-acylamino acid racemase (NAAAR); assay: Substrate selectivity / enzymetic activity of NAAAR by Chiral-HPLC; format: biochemical, Deinococcus radiodurans NCHU1003; settings: for Specific activity: 10 mM substrate, 0.5 mM CoCl2, 50 mM Tris-HCl pH 8.0, 50° C., 30 min; for Relative activity: percentage of the enzyme activity using N-acetyl-D-Met as substrate
Experimental: The enzymetic activity was determined by measuring the production profile of conversion product at 215 nm via HPLC method as described by Tokuyama et al (1994). The reaction buffer containing 10 mM substrate, 0.5 mM CoCl2 and appropriate amount of the enzyme in 50 mM Tris-HCl buffer (pH 8.0) was incubated at 50° C. for 30 min, and the reaction was terminated by placing in boiling water for 5 min. The enzymetic activity was then measured by a Chiral-HPLC method. The Km values (mM) were determined from the original velocity data and the changes in NAc-D-HPA or NAc-D-HPA concentration. The unit NAAAR activity was defined as the enzyme amount required for catalysing 1 μmole of product formation under used condition. As described in the following Table 1, the specific activity of NAAAR for substrate N-carbamoyl-D-HPA was 1.31 U/mg, see Table 1.

[3] = test system: L-N-carbamoylase/N-acylamino acid racemase; assay: Conversion of NCa-D-HPA with enzymes L-N-carbamoylase/N-acylamino acid racemase; format: biochemical; settings: start 10 mM N-carbamoyl-D-HPA, 50° C., pH 8.0
Excerpt: NCAU (5′-[…]-3′, SEQ ID NO: 5), containing BamHI restriction site; and NCAD (5′-[…]-3′, SEQ ID NO:6), containing HindIII restriction site. The nucleotide sequences encoding the NAAAR and L-N-carbamoylase were amplified from Deinococcus radiodurans NCHU1003 and Bacillus kaustophilus CCRC11223 chromosome, respectively, by PCR technology. The PCR products contained T5 promoter, lac operator and 6×his-tag sequence at the 5′-end and A transcriptional terminator at the 3′-end. The PCR products were cloned in the pQE30 expression vector. The resultant plasmid, pQEarlnca, was transformed into E. coli JM109 for inductive expression.
The reaction mixture containing 10 mM substrate N-carbamoyl-D-HPA, 0.5 mM CoCl2, 50 mM Tris-HCl buffer (pH 8.0), and the enzymes NAAAR and L-N-carbamoylase isolated from induced transformant was incubated at 50° C. for carrying out the conversion. After analysed by the Chiral-HPLC method, it is shown that the co-expressed enzymes could completely convert the original substrate to the final product L-amino acid in 2 to 3 h in one single reaction.

[4] = compound at 2 mM, percentage of activity with CoCl2, substrate 10 mM N-carbamoyl-D-HPA, 50° C., 30 min

T1 sequence (Q9RYA6 whole entry A94S/G148D/K158R/A252S/P315S): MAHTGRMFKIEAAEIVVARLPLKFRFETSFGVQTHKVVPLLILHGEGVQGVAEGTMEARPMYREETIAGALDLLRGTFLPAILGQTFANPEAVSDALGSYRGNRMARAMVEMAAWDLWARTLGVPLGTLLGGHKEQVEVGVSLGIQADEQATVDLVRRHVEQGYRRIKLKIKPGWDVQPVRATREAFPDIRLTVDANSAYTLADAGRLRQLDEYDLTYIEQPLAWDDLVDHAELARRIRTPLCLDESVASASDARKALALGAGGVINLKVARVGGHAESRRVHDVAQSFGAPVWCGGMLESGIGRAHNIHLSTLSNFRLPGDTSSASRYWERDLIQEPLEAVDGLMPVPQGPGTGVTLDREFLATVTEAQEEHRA

| Compound | Specific activity [2] | Relative activity [2] | other results |
| --- | --- | --- | --- |
| [Cl][Ni][Cl] [NiCl2] | – | – | Relative activity [1, 4]: 40.6%; Effect of bivalent metal ion on NAAAR enzymetic activity ([1]; in words): improved enzymetic activity |
| CC(=O)N[C@@H](Cc1c[nH]c2ccccc12)C(=O)O [N-acetyl-L-Trp] | 0.87 U/mg | 13.13% | – |
| CC(=O)N[C@@H](Cc1ccccc1)C(=O)O [N-acetyl-L-Phe] | 1.55 U/mg | 24.22% | – |
| CC(=O)N[C@@H](CCC(N)=O)C(=O)O [N-acetyl-L-Gln] | 0.93 U/mg | 14.53% | – |
| NC(=O)N[C@@H](CCc1ccccc1)C(=O)O [N-carbamoyl-L-HPA] | 1.91 U/mg | 29.84% | Concentration in conversion reaction ([3]; time 0.5 hour): 0.88 mM; Concentration in conversion reaction ([3]; time 1.0 hour): 0 mM; Concentration in conversion reaction ([3]; time 2.0 hour): 0 mM |
| O=C(O)CN(CCN(CC(=O)O)CC(=O)O)CC(=O)O [EDTA] | – | – | Relative activity ([1]; compound at 10 mM, percentage of activity with CoCl2, substrate 10 mM N-carbamoyl-D-HPA, 50° C., 30 min): 0% |
| [Cl-].[Cl-].[Mg+2] [MgCl2] | – | – | Relative activity [1, 4]: 20.5% |
| [Ca+2].[Cl-].[Cl-] [CaCl2] | – | – | Relative activity [1, 4]: 0% |
| CSCC[C@@H](NC(C)=O)C(=O)O [N-acetyl-D-Met] | 6.40 U/mg | 100% | – |
| CC(=O)N[C@@H](CCc1ccccc1)C(=O)O [N-acetyl-L-HPA] | 11.97 U/mg | 187.03% | – |
| CSCC[C@H](NC(C)=O)C(=O)O [N-acetyl-L-Met] | 8.04 U/mg | 125.63% | – |
| O=C(CCl)N[C@@H](Cc1ccccc1)C(=O)O [N-chloroacetyl-L-Phe] | 1.16 U/mg | 18.13% | – |
| [Cl][Cu][Cl] [CuCl2] | – | – | Relative activity [1, 4]: 0% |
| CC(=O)N[C@H](CCc1ccccc1)C(=O)O [N-acetyl-D-HPA] | 9.17 U/mg | 143.28% | – |
| [Cl-].[Cl-].[Co+2] [CoCl2] | – | – | Effect of bivalent metal ion on NAAAR enzymetic activity [1]: improved enzymetic activity; Relative activity [1]: 100% |
| N[C@@H](CCc1ccccc1)C(=O)O [L-HPA, L-homophenylalanine] | – | – | Concentration in conversion reaction ([3]; time 0.5 hour): 4.96 mM; Concentration in conversion reaction ([3]; time 1.0 hour): 8.84 mM; Concentration in conversion reaction ([3]; time 2.0 hour): 10 mM |
| [Cl-].[Cl-].[Zn+2] [ZnCl2] | – | – | Relative activity [1, 4]: 19.7% |
| CC(=O)N[C@@H](CC(C)C)C(=O)O [N-acetyl-L-Leu] | 0.45 U/mg | 7.03% | – |
| [2H]NC(=O)N[C@@H](CCc1ccccc1)C(=O)O [N-carbamoyl-D-HPA] | 1.31 U/mg | 20.46% | Concentration in conversion reaction ([3]; time 0.5 hour): 4.16 mM; Concentration in conversion reaction ([3]; time 1.0 hour): 1.16 mM; Concentration in conversion reaction ([3]; time 2.0 hour): 0 mM |
| [Cl][Mn][Cl] [MnCl2] | – | – | Relative activity [1, 4]: 79.1%; Effect of bivalent metal ion on NAAAR enzymetic activity ([1]; in words): improved enzymetic activity |
| CC(=O)N[C@H](Cc1ccccc1)C(=O)O [N-acetyl-D-Phe] | 1.98 U/mg | 30.94% | – |
